We go through four compounds from EP3046573B1, “AMYLIN ANALOGUES” (Zealand Pharma A/S, priority 2013, dated 2015).

A short description of data set [1]: Solubility assessment (turbidity absorbance at 325 nm). The data set is classed as physicochemical. Particulars: stock 2 mg/ml diluted 1:1, ambient temperature (typically 25°C), n=1; for Solubility, Acetate buffer pH 4: 100 mM acetate buffer pH 4.0; for Solubility, Acetate buffer pH 5: 100 mM acetate buffer pH 5.0; for Solubility, Histidine buffer pH 6: 100 mM histidine buffer pH 6.0; for Solubility, Histidine buffer pH 7: 100 mM histidine buffer pH 7.0; for Solubility, Phosphate buffer pH 6: 100 mM phosphate buffer pH 6.0; for Solubility, Phosphate buffer pH 7: 100 mM phosphate buffer pH 7.0; for Solubility, Phosphate buffer pH 7.5: 100 mM phosphate buffer pH7.5. In outline:
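Peptide stock (2 mg/ml) in water acidified to pH 2.5 with HCl was diluted 1:1 into 100 mM acetate (pH 4.0, 5.0), histidine (pH 6.0, 7.0) or phosphate (pH 6.0, 7.0, 7.5) buffer. A280 and A325 were read at about 25°C, n=1. A325 ≤ 0.02 meant solubility ≥ 1 mg/ml.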

The target of data set [2] is T1, human calcitonin receptor (hCTR2) (Homo sapiens, UniProt P30988).
T1 construct: expressed in transfected cells
T1 sequence (P30988 25-474): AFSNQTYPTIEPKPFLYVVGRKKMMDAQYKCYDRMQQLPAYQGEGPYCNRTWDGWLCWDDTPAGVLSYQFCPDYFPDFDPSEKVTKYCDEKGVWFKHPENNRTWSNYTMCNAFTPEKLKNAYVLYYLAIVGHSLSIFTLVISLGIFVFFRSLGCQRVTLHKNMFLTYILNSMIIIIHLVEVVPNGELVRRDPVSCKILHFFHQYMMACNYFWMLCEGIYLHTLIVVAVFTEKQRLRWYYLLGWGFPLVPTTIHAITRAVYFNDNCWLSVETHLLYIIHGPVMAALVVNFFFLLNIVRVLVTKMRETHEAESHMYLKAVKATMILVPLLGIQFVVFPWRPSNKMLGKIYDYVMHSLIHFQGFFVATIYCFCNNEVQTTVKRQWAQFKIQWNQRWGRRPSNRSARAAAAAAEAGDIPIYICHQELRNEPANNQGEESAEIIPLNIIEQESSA
Kind of data set: hCTR2 assay: induction of cAMP (AlphaScreen cAMP Assay kit) in COS7 cells expressing hCTR2. The data set is classed as cell-based. The essentials:
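Stable RAMP-naive COS7 clone expressing hCTR2 was stimulated with increasing peptide concentrations in Tyrode buffer (pH 7.4) with 100 µM IBMX and 0.1% casein for 15 min at 37° C. Cells were lysed and cAMP measured by AlphaScreen. EC50 and efficacy relative to pramlintide came from 4PL curve fits.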

pEC50: −log10 of the molar value. Numbered stars: 1 amine (or outer) side, 2 acyl side, 3 side chain; on linkers, the order of the positions; unused ones are H or OH. Bridge positions count the residues as written; N and C are the ends. Square brackets hold non-standard residues; d marks the D form. Peptide text beside a SMILES is read from it. * marks the point of attachment. C20 diacid = O=C(O)CCCCCCCCCCCCCCCCCCC(=O)*; C18 diacid = O=C(O)CCCCCCCCCCCCCCCCC(=O)*; C16 diacid = O=C(O)CCCCCCCCCCCCCCC(=O)*; γGlu = O=C(O)[C@H](CCC(=O)[*:2])N[*:1]; NMeI = CC[C@H](C)[C@H](NC)C(=O)O; Myristoyl = CCCCCCCCCCCCCC(=O)*; Sar = CNCC(=O)O

As usually defined, the pEC50 is the negative decadic logarithm of the EC50, by convention in mol/L. In the case of `CC[C@H](C)[C@@H](C(=O)N[C@@H](CC(C)C)C(=O)N[C@@H](CO)C(=O)N[C@@H](CO)C(=O)N[C@H](C(=O)N[C@@H](CC(N)=O)C(=O)N[C@H](C(=O)NCC(=O)N[C@@H](CO)C(=O)N[C@@H](CC(N)=O)C(=O)N[C@H](C(=O)N1CCC[C@H]1C(N)=O)[C@@H](C)O)C(C)C)[C@@H](C)O)N(C)C(=O)[C@H](C)NC(=O)CN(C)C(=O)[C@H](Cc1ccccc1)NC(=O)[C@H](CC(N)=O)NC(=O)[C@H](CC(N)=O)NC(=O)[C@H](CO)NC(=O)[C@H](CO)NC(=O)[C@H](CCCNC(=N)N)NC(=O)[C@H](Cc1c[nH]cn1)NC(=O)[C@H](CC(C)C)NC(=O)[C@H](Cc1ccccc1)NC(=O)[C@H](CCC(=O)O)NC(=O)[C@H](C)NC(=O)[C@H](CC(C)C)NC(=O)[C@H](CCCNC(=N)N)NC(=O)[C@H](CCC(N)=O)NC(=O)[C@@H](NC(=O)[C@H](C)NC(=O)[C@@H]1CSSC[C@H](NC(=O)[C@H](CCCCN)NC(=O)[C@H](Cc2c[nH]cn2)NC(=O)CC[C@H](NC(=O)CCCCCCCCCCCCCCCCCCC(=O)O)C(=O)O)C(=O)N[C@@H](CC(N)=O)C(=O)N[C@@H]([C@@H](C)O)C(=O)N[C@@H](C)C(=O)N[C@@H]([C@@H](C)O)C(=O)N1)[C@@H](C)O` [Compound 88, [19CD]-isoGlu-HKC()NTATC()ATQRLAEFLHRSSNNF-Gly(Me)-A-Ile(Me)-LSSTNVGSNTP-NH2] ({C20 diacid-γGlu}-HKCNTATCATQRLAEFLHRSSNNF[Sar]A[NMeI]LSSTNVGSNTP-NH2; disulfide 3-8), in data set [1], the “Solubility, Acetate buffer pH 4” value is “SS (SS indicates solubility ≥ 1mg/ml)”; the “Solubility, Acetate buffer pH 5” value is given as “SS (SS indicates solubility ≥ 1mg/ml)”; the “Solubility, Histidine buffer pH 6” value was “SS (SS indicates solubility ≥ 1mg/ml)”; the “Solubility, Histidine buffer pH 7” value is “SS (SS indicates solubility ≥ 1mg/ml)”. Also, in data set [1], the “Solubility, Phosphate buffer pH 6” value is “SS (SS indicates solubility ≥ 1mg/ml)”; the “Solubility, Phosphate buffer pH 7” value was “SS (SS indicates solubility ≥ 1mg/ml)”; the “Solubility, Phosphate buffer pH 7.5” value is “SS (SS indicates solubility ≥ 1mg/ml)”. For the same compound, the pEC50 in data set [2] is 10.16.

As for `CC[C@H](C)[C@@H](C(=O)N[C@@H](CC(C)C)C(=O)N[C@@H](CO)C(=O)N[C@@H](CO)C(=O)N[C@H](C(=O)N[C@@H](CC(N)=O)C(=O)N[C@H](C(=O)NCC(=O)N[C@@H](CO)C(=O)N[C@@H](CC(N)=O)C(=O)N[C@H](C(=O)N1CCC[C@H]1C(N)=O)[C@@H](C)O)C(C)C)[C@@H](C)O)N(C)C(=O)[C@H](C)NC(=O)CN(C)C(=O)[C@H](Cc1ccccc1)NC(=O)[C@H](CC(N)=O)NC(=O)[C@H](CC(N)=O)NC(=O)[C@H](CO)NC(=O)[C@H](CO)NC(=O)[C@H](CCCNC(=N)N)NC(=O)[C@H](Cc1c[nH]cn1)NC(=O)[C@H](CC(C)C)NC(=O)[C@H](Cc1ccccc1)NC(=O)[C@H](CCC(=O)O)NC(=O)[C@H](C)NC(=O)[C@H](CC(C)C)NC(=O)[C@H](CCCNC(=N)N)NC(=O)[C@H](CCC(N)=O)NC(=O)[C@@H](NC(=O)[C@H](C)NC(=O)[C@@H]1CSSC[C@H](NC(=O)[C@H](CCCNC(=N)N)NC(=O)CC[C@H](NC(=O)CCCCCCCCCCCCCCCCC(=O)O)C(=O)O)C(=O)N[C@@H](CC(N)=O)C(=O)N[C@@H]([C@@H](C)O)C(=O)N[C@@H](C)C(=O)N[C@@H]([C@@H](C)O)C(=O)N1)[C@@H](C)O` [Compound 89, [17CD]-isoGlu-RC()NTATC()ATQRLAEFLHRSSNNF-Gly(Me)-A-Ile(Me)-LSSTNVGSNTP-NH2] ({C18 diacid-γGlu}-RCNTATCATQRLAEFLHRSSNNF[Sar]A[NMeI]LSSTNVGSNTP-NH2; disulfide 2-7), in data set [1], the “Solubility, Acetate buffer pH 4” value is “SS (SS indicates solubility ≥ 1mg/ml)”; the “Solubility, Acetate buffer pH 5” value is “SS (SS indicates solubility ≥ 1mg/ml)”; the “Solubility, Histidine buffer pH 6” value is listed as “SS (SS indicates solubility ≥ 1mg/ml)”; the “Solubility, Histidine buffer pH 7” value was “SS (SS indicates solubility ≥ 1mg/ml)”. Also, in data set [1], the “Solubility, Phosphate buffer pH 6” value is “SS (SS indicates solubility ≥ 1mg/ml)”; the “Solubility, Phosphate buffer pH 7” value is reported as “SS (SS indicates solubility ≥ 1mg/ml)”; the “Solubility, Phosphate buffer pH 7.5” value is given as “SS (SS indicates solubility ≥ 1mg/ml)”. Further, the pEC50 in data set [2] is 10.27.

On to `CC[C@H](C)[C@@H](C(=O)N[C@@H](CC(C)C)C(=O)N[C@@H](CO)C(=O)N[C@@H](CO)C(=O)N[C@H](C(=O)N[C@@H](CC(N)=O)C(=O)N[C@H](C(=O)NCC(=O)N[C@@H](CO)C(=O)N[C@@H](CC(N)=O)C(=O)N[C@H](C(=O)N1CCC[C@H]1C(N)=O)[C@@H](C)O)C(C)C)[C@@H](C)O)N(C)C(=O)[C@H](C)NC(=O)CN(C)C(=O)[C@H](Cc1ccccc1)NC(=O)[C@H](CC(N)=O)NC(=O)[C@H](CC(N)=O)NC(=O)[C@H](CO)NC(=O)[C@H](CO)NC(=O)[C@H](CCCNC(=N)N)NC(=O)[C@H](Cc1c[nH]cn1)NC(=O)[C@H](CC(C)C)NC(=O)[C@H](Cc1ccccc1)NC(=O)[C@H](CCC(=O)O)NC(=O)[C@H](C)NC(=O)[C@H](CC(C)C)NC(=O)[C@H](CCCNC(=N)N)NC(=O)[C@H](CCC(N)=O)NC(=O)[C@@H](NC(=O)[C@H](C)NC(=O)[C@@H]1CSSC[C@H](NC(=O)[C@H](CCCNC(=N)N)NC(=O)CC[C@H](NC(=O)CCCCCCCCCCCCCCC(=O)O)C(=O)O)C(=O)N[C@@H](CC(N)=O)C(=O)N[C@@H]([C@@H](C)O)C(=O)N[C@@H](C)C(=O)N[C@@H]([C@@H](C)O)C(=O)N1)[C@@H](C)O` [Compound 90, [15CD]-isoGlu-RC()NTATC()ATQRLAEFLHRSSNNF-Gly(Me)-A-Ile(Me)-LSSTNVGSNTP-NH2] ({C16 diacid-γGlu}-RCNTATCATQRLAEFLHRSSNNF[Sar]A[NMeI]LSSTNVGSNTP-NH2; disulfide 2-7), for which, in data set [1], the “Solubility, Acetate buffer pH 4” value is listed as “SS (SS indicates solubility ≥ 1mg/ml)”; the “Solubility, Acetate buffer pH 5” value is listed as “SS (SS indicates solubility ≥ 1mg/ml)”; the “Solubility, Histidine buffer pH 6” value is “SS (SS indicates solubility ≥ 1mg/ml)”; the “Solubility, Histidine buffer pH 7” value is “SS (SS indicates solubility ≥ 1mg/ml)”. In addition, in data set [1], the “Solubility, Phosphate buffer pH 6” value is recorded as “SS (SS indicates solubility ≥ 1mg/ml)”; the “Solubility, Phosphate buffer pH 7” value is given as “SS (SS indicates solubility ≥ 1mg/ml)”; the “Solubility, Phosphate buffer pH 7.5” value is recorded as “SS (SS indicates solubility ≥ 1mg/ml)”. The pEC50 in data set [2] is 10.18.

In the case of `CCCCCCCCCCCCCC(=O)N[C@@H](CCC(=O)N[C@@H](CCCNC(=N)N)C(=O)N[C@H]1CSSC[C@@H](C(=O)N[C@@H](C)C(=O)N[C@H](C(=O)N[C@@H](CCC(N)=O)C(=O)N[C@@H](CCCNC(=N)N)C(=O)N[C@@H](CC(C)C)C(=O)N[C@@H](C)C(=O)N[C@@H](CCC(=O)O)C(=O)N[C@@H](Cc2ccccc2)C(=O)N[C@@H](CC(C)C)C(=O)N[C@@H](Cc2c[nH]cn2)C(=O)N[C@@H](CCCNC(=N)N)C(=O)N[C@@H](CO)C(=O)N[C@@H](CO)C(=O)N[C@@H](CC(N)=O)C(=O)N[C@@H](CC(N)=O)C(=O)N[C@@H](Cc2ccccc2)C(=O)N(C)CC(=O)N[C@@H](C)C(=O)N(C)[C@H](C(=O)N[C@@H](CC(C)C)C(=O)N[C@@H](CO)C(=O)N[C@@H](CO)C(=O)N[C@H](C(=O)N[C@@H](CC(N)=O)C(=O)N[C@H](C(=O)NCC(=O)N[C@@H](CO)C(=O)N[C@@H](CC(N)=O)C(=O)N[C@H](C(=O)N2CCC[C@H]2C(N)=O)[C@@H](C)O)C(C)C)[C@@H](C)O)[C@@H](C)CC)[C@@H](C)O)NC(=O)[C@H]([C@@H](C)O)NC(=O)[C@H](C)NC(=O)[C@H]([C@@H](C)O)NC(=O)[C@H](CC(N)=O)NC1=O)C(=O)O` [Compound 91, [Tetradecanoyl]-isoGlu-RC()NTATC()ATQRLAEFLHRSSNNF-Gly(Me)-A-Ile(Me)-LSSTNVGSNTP-NH2] ({Myristoyl-γGlu}-RCNTATCATQRLAEFLHRSSNNF[Sar]A[NMeI]LSSTNVGSNTP-NH2; disulfide 2-7), in data set [1], the “Solubility, Acetate buffer pH 4” value was “SS (SS indicates solubility ≥ 1mg/ml)”; the “Solubility, Acetate buffer pH 5” value is given as “SS (SS indicates solubility ≥ 1mg/ml)”; the “Solubility, Histidine buffer pH 6” value is “SS (SS indicates solubility ≥ 1mg/ml)”; the “Solubility, Histidine buffer pH 7” value is reported as “SS (SS indicates solubility ≥ 1mg/ml)”. Moreover, in data set [1], the “Solubility, Phosphate buffer pH 6” value is “SS (SS indicates solubility ≥ 1mg/ml)”; the “Solubility, Phosphate buffer pH 7” value is recorded as “SS (SS indicates solubility ≥ 1mg/ml)”; the “Solubility, Phosphate buffer pH 7.5” value was “SS (SS indicates solubility ≥ 1mg/ml)”. Moreover, the pEC50 in data set [2] is 10.33.
